Where “and” joins values, the source holds several entries; their conditions need not be identical. Equal values may be shown once.
Tests used:
[1] = Apparent pKa of LNPs comprising the ionizable lipid (Table 6); conditions: standard formulation 50:10:38.5:1.5
[2] = Size distribution, polydispersity and Z-potential of LNPs by dynamic light scattering (Malvern Zetasizer); type: physicochemical; conditions: LNPs, standard formulation 50:10:38.5:1.5; DLS
Protocol: The LNP solution was then adjusted to a final concentration of mRNA of 100 µg/ml. Size distribution, polydispersity and Z-potential were measured by dynamic light scattering (DLS) using Malvern Zetasizer Advance Lab Blue Label. RNA encapsulation was assessed by Quant-IT® Ribogreen following the manufacturer's instructions.

[3] = RNA encapsulation efficiency of LNPs by Quant-IT Ribogreen; type: physicochemical; conditions: for Encaps. efficiency (%): LNPs with luciferase mRNA, ionizable lipid:non-cationic lipid:sterol:PEG-modified lipid 50:10:38.5:1.5, percentage of RNA entrapped in the LNP
Outline: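 Ribogreen dye assay per manufacturer quantified encapsulated mRNA. Particles were made by adding mRNA in water to the ethanol phase, then 1:1 Tris dilution and overnight dialysis into Tris/15% sucrose; final mRNA set to 100 µg/ml.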

Apparent pKa [1]	P.D.I. [2]	Particle size/ Ø (nm) [2]	Z Potential (± D.E.) [mV] [2]	Encaps. efficiency (%) [3]	Encaps. efficiency ([3]; Table 8, LNP 50:10:38.5:1.5, luciferase mRNA)	SMILES
6.61	0.15	181.3 nm	7.19 mV	95.26%		CCCCCCCC/C=C\CCCCCCCCOC(=O)CCSCCC(NC(=O)CCCCCCCCCCCCCCCCC)C(=O)NC1CCN(C)CC1 (stereo not shown) [VC-LC-0438]
5.77			-17.58 mV	47.36%		CCCCCCCCOC(=O)CCSCCC(NC(=O)C(CCCCCC)CCCCCCCC)C(=O)NCCCN1CCOCC1 (stereo not shown) [VC-LC-0176]
7.47	0.15	152.3 nm	1.06 mV	99.46%		CCCCCCCCC(CCCCCC)C(=O)NC(CCSCCC(=O)OCCCCCC(C)C)C(=O)NCC1CCN(C)CC1 (stereo not shown) [VC-LC-0498]
6.40	0.14	138.8 nm	-5.71 mV	65.25%		CCCCCCCCCCC(CCCCCCCC)C(=O)NC(CCSCCC(=O)OCC(CC)CCCC)C(=O)NC1CCN(C)CC1 (stereo not shown) [VC-LC-0559]
6.38	0.13	116.8 nm	-14.33 mV	78.29%		CCCCCCCCC(CCCCCCCC)OC(=O)C(CCSCCC(=O)OCCCCCCCC(C)C)C(=O)NCCCn1ccnc1 (stereo not shown) [VC-LC-0364]
5.82			-10.64 mV	48.02%		CCCCCCCCCCCCCCCCOC(=O)CCSCCC(C(=O)NC1CCN(C)CC1)C(=O)OC(CCCCCCCC)CCCCCCCC (stereo not shown) [VC-LC-0445]
5.64	0.18	168.0 nm	-9.73 mV	51.46%		CCCCCCCCC(CCCCCC)COC(=O)CCSCCC(C(=O)NCCCN1CCOCC1)C(=O)OCC(CCCCCC)CCCCCCCC (stereo not shown) [VC-LC-0606]
6.53	0.12	140.3 nm	-11.02 mV	36.86%		CCCCCCCCCCCCOC(=O)CCSCC(CC(=O)NCCCN1CCOCC1)C(=O)OC(CCCCCCCC)CCCCCCCC (stereo not shown) [VC-LC-0544]
6.59	0.13	135 nm	-4.72 mV	52.31%		CCCCCCCCC(CCCCCC)C(=O)NC(CCSCCC(=O)OCCCCCCCC(C)C)C(=O)NCCN(CC)CC (stereo not shown) [VC-LC-0475]
6.65	0.15	146.7 nm	-9.55 mV	57.43%		CCCCCCCCCCCCOC(=O)CCSCCC(NC(=O)C(CCCCCC)CCCCCCCC)C(=O)NCCN(CC)CC (stereo not shown) [VC-LC-0477]
5.88	0.20	179.2 nm	-11.14 mV	50.40%		CCCCCCCCC(CCCCCC)COC(=O)C(CCSCCC(=O)OCC(CC)CCCC)C(=O)NCCCN1CCOCC1 (stereo not shown) [VC-LC-0608]
6.57	0.13	149.0 nm	-3.35 mV	55.25%		CCCCCCCCCCC(CCCCCCCC)C(=O)NC(CCSCCC(=O)OCCCCCC)C(=O)NC1CCN(C)CC1 (stereo not shown) [VC-LC-0566]
5.72	0.2483	214.6 nm	1.34 mV	99.09%		CCCCCCCCCCCCCCCCCC(=O)NC(CCSCCC(=O)OCCCCCCCCCCCC)C(=O)NC1CCN(C)CC1 (stereo not shown) [VC-LC-0434]
6.67	0.17	149.1 nm	3.90 mV	97.70%		CCCCCCCCCCC(CCCCCCCC)C(=O)NC(CCSCCC(=O)OCCCCCC)C(=O)NCC1CCN(C)CC1 (stereo not shown) [VC-LC-0518]
6.44	0.29	126.9 nm	-16.42 mV	46.27%		CCCC#CCCOC(=O)CCSCCC(NC(=O)C(CCCCCC)CCCCCCCC)C(=O)NC1CCN(C)CC1 (stereo not shown) [VC-LC-0432]
5.93	0.13	168.1 nm	-21.04 mV	55.68%		CCCCCCCCCCCCCCOC(=O)CCSCCC(C(=O)NCCCN1CCOCC1)C(=O)OCC(CCCCCC)CCCCCCCC (stereo not shown) [VC-LC-0610]
6.67	0.18	151 nm	-5.11 mV	59.89%	59.9% and 95.6%	CCCCCCCCC(CCCCCC)COC(=O)CCSCC(CC(=O)NC1CCN(C)CC1)C(=O)OCC(CCCCCC)CCCCCCCC (stereo not shown) [VC-LC-0525]
5.54	0.12	150.3 nm	-6.62 mV	38.50%		CCCCCCCC/C=C\CCCCCCCCOC(=O)CCSCCC(NC(=O)C(CCCCCCCC)CCCCCCCCCC)C(=O)NCCCN1CCOCC1 (stereo not shown) [VC-LC-0587]
6.43	0.14	156.3 nm	-10.60 mV	33.76%		CCCCCCCCC(CCCCCCCC)OC(=O)C(CSCCC(=O)OCCCCCCCC(C)C)CC(=O)NCCCN1CCOCC1 (stereo not shown) [VC-LC-0542]
6.39	0.11	154.7 nm	-6.83 mV	42.80%		CCCCCCCCC(CCCCCC)COC(=O)CCSCC(CC(=O)NCCCN1CCOCC1)C(=O)OC(CCCCCCCC)CCCCCCCC (stereo not shown) [VC-LC-0541]
6.79	0.16	149.1 nm	-4.15 mV	62.45%		CCCCCCCC#CCOC(=O)CCSCCC(NC(=O)C(CCCCCC)CCCCCCCC)C(=O)NCCN(CC)CC (stereo not shown) [VC-LC-0488]
6.85	0.14	155.6 nm	4.06 mV	98.97%		CCCCCCCCCCCCOC(=O)CCSCCC(NC(=O)C(CCCCCCCC)CCCCCCCCCC)C(=O)NCC1CCN(C)CC1 (stereo not shown) [VC-LC-0511]
6.61	0.14	155.7 nm	-10.98 mV	31.75%		CCCCCCCCC(CCCCCCCC)OC(=O)C(CSCCC(=O)OCC(CC)CCCC)CC(=O)NCCCN1CCOCC1 (stereo not shown) [VC-LC-0543]
6.46	0.12	128.8 nm	-0.57 mV	98.56%		CCCCCCCCC(CCCCCC)C(=O)NC(CCSCCC(=O)OCC(CC)CCCC)C(=O)NCC1CCN(C)CC1 (stereo not shown) [VC-LC-0493]
6.74		168.6 nm	-2.94 mV	99.88%		CCCCCCCC#CCOC(=O)CCSCCC(NC(=O)C(CCCCCC)CCCCCCCC)C(=O)NCC1CCN(C)CC1 (stereo not shown) [VC-LC-0505]
